This passage reports Ki results from US7045532B2 (Millennium Pharmaceuticals, Inc., priority 1999, dated 2006).

One assay deals with T1, ACE (Sigma, A2580) (Sus scrofa, UniProt F1RRW5).
T1 construct: ACE from porcine kidney; purchased Sigma A2580; host or cells: porcine kidney
T1 sequence (F1RRW5 34-1309): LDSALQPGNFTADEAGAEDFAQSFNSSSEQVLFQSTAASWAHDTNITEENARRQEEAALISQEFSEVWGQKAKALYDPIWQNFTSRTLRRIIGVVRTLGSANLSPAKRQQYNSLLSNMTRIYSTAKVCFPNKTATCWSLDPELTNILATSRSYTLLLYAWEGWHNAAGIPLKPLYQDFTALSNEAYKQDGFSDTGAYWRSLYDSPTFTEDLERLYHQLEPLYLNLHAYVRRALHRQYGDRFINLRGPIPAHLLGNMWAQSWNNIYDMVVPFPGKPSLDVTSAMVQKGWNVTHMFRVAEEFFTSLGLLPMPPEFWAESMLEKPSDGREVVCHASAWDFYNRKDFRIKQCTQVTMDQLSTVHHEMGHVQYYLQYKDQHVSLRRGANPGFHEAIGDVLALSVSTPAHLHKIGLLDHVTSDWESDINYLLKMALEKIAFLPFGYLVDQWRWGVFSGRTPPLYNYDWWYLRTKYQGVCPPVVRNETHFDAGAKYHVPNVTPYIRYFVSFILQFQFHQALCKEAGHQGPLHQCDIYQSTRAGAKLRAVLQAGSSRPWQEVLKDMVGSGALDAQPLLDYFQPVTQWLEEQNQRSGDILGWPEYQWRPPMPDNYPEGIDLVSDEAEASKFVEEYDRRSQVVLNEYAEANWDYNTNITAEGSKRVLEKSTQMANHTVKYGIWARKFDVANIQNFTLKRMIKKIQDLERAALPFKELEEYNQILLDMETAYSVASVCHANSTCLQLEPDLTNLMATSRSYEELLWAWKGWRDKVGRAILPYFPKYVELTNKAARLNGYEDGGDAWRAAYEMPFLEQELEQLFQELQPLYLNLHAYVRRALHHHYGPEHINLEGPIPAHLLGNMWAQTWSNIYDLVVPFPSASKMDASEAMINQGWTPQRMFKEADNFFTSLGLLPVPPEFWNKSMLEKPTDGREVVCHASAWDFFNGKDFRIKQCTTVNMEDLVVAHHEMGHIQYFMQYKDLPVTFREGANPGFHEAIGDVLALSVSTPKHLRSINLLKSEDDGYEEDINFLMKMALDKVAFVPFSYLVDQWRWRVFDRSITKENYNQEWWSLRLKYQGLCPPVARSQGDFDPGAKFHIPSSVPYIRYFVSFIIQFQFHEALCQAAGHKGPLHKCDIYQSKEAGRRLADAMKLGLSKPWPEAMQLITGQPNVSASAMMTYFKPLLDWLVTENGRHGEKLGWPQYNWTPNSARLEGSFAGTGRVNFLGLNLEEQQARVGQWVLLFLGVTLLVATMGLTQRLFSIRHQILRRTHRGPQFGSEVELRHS
The experiment in a line: ACE enzymatic activity assay. The assay is classed as biochemical, porcine. As to conditions: Ki class; compounds tested in 5% DMSO, 12 concentrations. As to the method:
ACE (Sigma, A2580) enzymatic activity was assayed in microtiter plates using the following protocol. ACE assay buffer was made from 50 mM HEPES (Sigma), 300 mM sodium chloride (Sigma), and 0.01% Brij-35 (Pierce Chemical Co) at pH 7.5.
Reactions were mixed and incubated at 25° C. Enzymatic cleavage of the substrate is marked by a fluorescence change (excitation 330 nm, emission 415 nm).
The activity of the test compounds was investigated using the procedure outlined above. The compounds were tested in 5% DMSO. Enzyme activity was measured at 12 compound concentrations. […]. […]

The target in a further assay is T2, Carboxypeptidase A (Bos taurus, UniProt P00730).
T2 sequence (P00730 111-419): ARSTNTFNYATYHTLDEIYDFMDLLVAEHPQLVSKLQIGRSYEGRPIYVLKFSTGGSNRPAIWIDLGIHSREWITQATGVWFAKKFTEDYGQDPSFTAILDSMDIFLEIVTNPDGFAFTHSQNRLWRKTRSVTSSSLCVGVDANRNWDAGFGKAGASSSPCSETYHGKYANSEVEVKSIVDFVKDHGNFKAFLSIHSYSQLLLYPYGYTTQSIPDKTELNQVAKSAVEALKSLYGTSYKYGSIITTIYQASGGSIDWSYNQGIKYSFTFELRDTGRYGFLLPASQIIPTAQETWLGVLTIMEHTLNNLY
Briefly: Carboxypeptidase A activity assay. The assay is classed as biochemical. Particulars: Ki class; compounds tested in 5% DMSO, 12 concentrations. As to the method:
Carboxypeptidase A activity was measured using a literature assay (Holmquist and Riordan, “Carboxypeptidase A,” Methods of Enzymatic Analysis (1984) p. 44–60). The assay was adapted to a 96 well format by adjusting to a 300 μL assay volume and using ultra-thin bottom plates (Costar/Corning) read at 328 nm. The assay was stopped using EDTA.
The activity of the test compounds was investigated using the procedure outlined above. The compounds were tested in 5% DMSO. Enzyme activity was measured at 12 compound concentrations. The Ki was calculated by using Ki=Kiapp/(1+[S]/Km).
To determine whether a test compound is capable of modulating carboxypeptidase A's ability to cleave a substrate the method described in Holmquist and Riordan, Carboxypeptidase A, p44–60, Peptidase and Their Inhibitors in Method of Enzymatic Analysis (1984), may be used.
The assay may be adapted to a 96 well format by adjusting to a 300 μl assay volume and using ultrathin bottom plates (Costar/Coming) read at 328 nm with a final assay volume of 300 μl. The assay may be stopped using EDTA.

Another assay concerns the target T3, ACE-2 (Homo sapiens, UniProt Q9BYF1).
T3 construct: a stop codon inserted after the serine immediately preceding the transmembrane domain; made in house; host or cells: CHO K1 cells (transient transfection, purified from conditioned medium)
Briefly: ACE-2 Competitive Substrate Assay (ACS Assay). The assay is classed as biochemical. Particulars: Ki class; compounds tested in 5% DMSO, 12 concentrations; read-out: Human ACE-2 Activity.

T3 sequence (Q9BYF1 18-740 limits assumed): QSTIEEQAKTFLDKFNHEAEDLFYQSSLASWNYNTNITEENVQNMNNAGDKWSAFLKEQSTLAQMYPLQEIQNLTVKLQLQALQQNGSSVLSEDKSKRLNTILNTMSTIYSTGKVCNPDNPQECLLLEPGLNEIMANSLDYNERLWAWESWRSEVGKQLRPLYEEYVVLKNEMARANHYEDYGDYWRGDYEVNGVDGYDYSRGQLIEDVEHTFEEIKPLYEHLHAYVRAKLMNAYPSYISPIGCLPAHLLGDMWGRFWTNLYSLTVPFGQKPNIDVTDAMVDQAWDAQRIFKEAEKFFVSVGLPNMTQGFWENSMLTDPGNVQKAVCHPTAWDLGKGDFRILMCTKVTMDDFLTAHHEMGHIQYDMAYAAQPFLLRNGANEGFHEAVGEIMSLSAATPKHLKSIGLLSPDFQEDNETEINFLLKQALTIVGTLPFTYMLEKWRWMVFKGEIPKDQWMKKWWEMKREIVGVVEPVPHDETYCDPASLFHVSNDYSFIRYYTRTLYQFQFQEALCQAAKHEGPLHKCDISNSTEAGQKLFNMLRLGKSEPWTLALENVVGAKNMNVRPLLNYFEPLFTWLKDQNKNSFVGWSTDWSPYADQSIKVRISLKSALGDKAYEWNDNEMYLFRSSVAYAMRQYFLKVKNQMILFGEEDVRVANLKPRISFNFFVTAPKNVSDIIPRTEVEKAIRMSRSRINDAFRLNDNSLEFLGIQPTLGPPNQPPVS

Consider “2-[2-(3-Benzyl-3H-imidazol-4-yl)-1-carboxy-ethylamino]-butync acid [GG]”, for which the Ki at ACE (Sigma, A2580) was more than 50 µM; at Carboxypeptidase A, more than 50 µM.
As for “2-[2-(3-Benzyl-3H-imidazol-4-yl)-1-carboxy-ethylamino]-butync acid [GH]”, the Ki at ACE (Sigma, A2580) is more than 50 µM; on Carboxypeptidase A, more than 50 µM.
As to “4-Methyl-2-(3-phenethyl-ureido)-pentanoic acidmethyl ester [DG]”, the Ki on ACE (Sigma, A2580) is more than 50 µM; on Carboxypeptidase A it was more than 50 µM.
For the compound `CC(=O)N(C(CCc1ccccc1)C(=O)O)[C@@H](CC(C)C)C(=O)O` (single isomer, unassigned) [AU, 2-[Acetyl-(1-carboxy-3-phenyl-propyl)-amino]-4-methyl-pentanoic acid], the Ki on ACE (Sigma, A2580) is more than 50 µM; on Carboxypeptidase A, more than 50 µM.
For the compound `CC(C)CC(N[C@H](Cc1c[nH]cn1)C(=O)O)C(=O)O` (single isomer, unassigned) [BJ, 2-[1-Carboxy-2-(1H-imidazol-4-yl)-ethylamino]4-methyl-pentanoic acid], the Ki was 10 to 50 µM on ACE (Sigma, A2580) and more than 50 µM on Carboxypeptidase A.
The corresponding values for `CC(C)CC(N[C@@H](Cc1cn(Cc2ccccc2)cn1)C(=O)O)C(=O)O` (single isomer, unassigned) [DM, 2-[2-(1-Benzyl-1H-imidazol-4-yl)-1-carboxy-ethylamino]-4-methyl-pentanoic acid] are more than 50 µM and more than 50 µM.
The matching figures for `CCCCC(CC(=O)O)N[C@@H](Cc1c[nH]cn1)C(=O)O` (single isomer, unassigned) [ET, 3-[1-Carboxy-2-(1H-imidazol-4-yl)-ethylamino]heptanoic acid]: more than 50 µM and more than 50 µM.
The corresponding values for `CC(C)CC(N[C@@H](Cc1c[nH]cn1)C(N)=O)C(=O)O` (single isomer, unassigned) [EW, 2-[1-Carbamoyl-2-(1H-imidazol-4-yl)-ethylamino]4-methyl-pentanoic acid] are more than 50 µM and more than 50 µM.
With `CC(C)CC(N[C@@H](Cc1c[nH]cn1)C(=O)Nc1ccc([N+](=O)[O-])cc1)C(=O)O` (single isomer, unassigned) [EY, 2-[2-(1H-Imidazol-4-yl)-1-(4-nitro-phenylcarbamoyl)ethylamino]-4-methyl-pentanoic acid], the Ki is more than 50 µM on ACE (Sigma, A2580) and more than 50 µM at Carboxypeptidase A.
For the compound `CC(C)CC(N[C@@H](Cc1cncn1Cc1ccccc1)C(=O)O)C(=O)O` (single isomer, unassigned) [FA, 2-[2-(3-Benzyl-3H-imidazol-4-yl)-1-carboxy-ethylamino]-4-methyl-pentanoic acid], the Ki at ACE (Sigma, A2580) is more than 50 µM; at Carboxypeptidase A, more than 50 µM.
With `CC(C)CC(N[C@@H](CNc1ccccc1)C(=O)O)C(=O)O` (single isomer, unassigned) [FJ, 2-(1-Carboxy-2-phenylamino-ethylamino)-4-methyl-pentanoic acid], the Ki at ACE (Sigma, A2580) was more than 50 µM; at Carboxypeptidase A it was more than 50 µM.
Turning to `COc1ccc(CCNC(=O)[C@H](Cc2cnc[nH]2)NC(CC(C)C)C(=O)O)cc1` (single isomer, unassigned) [FL, 2-{2-(3H-Imidazol-4-yl)-1-[2-(4-methoxy-phenyl)-ethylcarbamoyl]-ethylamino}4-methyl-pentanoic acid], the Ki on ACE (Sigma, A2580) is more than 50 µM; on Carboxypeptidase A, more than 50 µM.
In the case of `CC(C)CC(N[C@@H](Cc1cncn1COCc1ccccc1)C(=O)NCCc1ccccc1)C(=O)O` (single isomer, unassigned) [FN, 2-[2-(3-Benzyloxymethyl-3H-imidazol-4-yl)-1-phenethylcarbamoyl-ethylamino]-4-methyl-pentanoic acid], the Ki on ACE (Sigma, A2580) is more than 50 µM; on Carboxypeptidase A, more than 50 µM.
`CC(C)CC(N[C@H](CO)Cc1c[nH]cn1)C(=O)O` (single isomer, unassigned) [FP, 2-[1-Hydroxymethyl-2-(1H-imidazol-4-yl)-ethylamino)4-methyl-pentanoic acid]: the Ki at ACE (Sigma, A2580) was more than 50 µM; at Carboxypeptidase A it was more than 50 µM.
Regarding `CC(C)CC(N[C@@H](Cc1cnc[nH]1)C(=O)NCCc1ccccc1)C(=O)O` (single isomer, unassigned) [FX, 2-[2-(3H-Imidazol-4-yl)-1-phenethylcarbamoyl-ethylamino]-4-methyl-pentanoic acid], the Ki on ACE (Sigma, A2580) was more than 50 µM; at Carboxypeptidase A it was more than 50 µM.
With `CC(C)CC(N[C@@H](Cc1cncn1Cc1cccc2ccccc12)C(=O)O)C(=O)O` (single isomer, unassigned) [GL, 2-[1-Carboxy-2-(3-naphthalen-1-ylmethyl-3Himidazol-4-yl)-ethylamino]4-methyl-pentanoic acid], the Ki on ACE (Sigma, A2580) lay in the range of 10 to 50 µM; at Carboxypeptidase A it was 10 to 50 µM.
As to `CC(C)CC(N[C@@H](Cc1cncn1Cc1ccc(Cl)cc1)C(=O)O)C(=O)O` (single isomer, unassigned) [GN, 2-[1-Carboxy-2-[3-(4-chloro-benzyl)-3H-imidazol-4-yl]-ethylamino]4-methyl-pentanoic acid], the Ki was more than 50 µM on ACE (Sigma, A2580) and more than 50 µM at Carboxypeptidase A.
For `CC(C)CC(N[C@@H](Cc1cncn1Cc1ccc(C(=O)O)cc1)C(=O)O)C(=O)O` (single isomer, unassigned) [GP, 4-[5-[2-Carboxy-2-(1-carboxy-3-methyl-butylamino)-ethyl]-imidazol-1-ylmethyl]-benzoic acid], the Ki at ACE (Sigma, A2580) was more than 50 µM; at Carboxypeptidase A it was more than 50 µM.
With `CC(C)C[C@H](NC(CCc1ccccc1)C(=O)O)C(=O)O` (some centres unmarked) [C, 2-(1-Carboxy-3-phenyl-propylamino)-4-methyl-pentanoic acid], the Ki was more than 0.5 µM at ACE-2 and more than 50 µM on ACE (Sigma, A2580).
Turning to `CC(C)CC(N[C@H](Cc1cn(Cc2ccccc2)cn1)C(=O)O)C(=O)O` (some centres unmarked) [CX, 2-[2-(1-Benzyl-1H-imidazol-4-yl)-1-carboxy-ethylamino]-4-methyl-pentanoic acid], the Ki on ACE (Sigma, A2580) is 10 to 50 µM; at Carboxypeptidase A, more than 50 µM.
Consider `CC(C)C[C@H](N[C@@H](CCc1ccccc1)C(=O)O)C(=O)O` [D, 2-(1-Carboxy-3-phenyl-propylamino)-4-methyl-pentanoic acid], for which the Ki at ACE-2 was more than 0.5 µM; on ACE (Sigma, A2580), more than 50 µM.
The corresponding values for `CC(CS)C(=O)O` (centres unmarked) [G, 3-Mercapto-2-methyl-propionic acid] are more than 0.5 µM and more than 50 µM.
